pIC50: −log10 of the molar value. Like-named read-outs stand apart in the source and are kept apart here.
Key:
PARP domain of TNKS2 = target: T1, PARP domain of TNKS2 (Homo sapiens, UniProt Q9H2K2); test: In vitro PARP assay, IC50 on TNKS2 (this study); assay type: biochemical; details: values from this study
T1 construct: His6; made in house; host or cells: Escherichia coli BL-21(DE3) RIPL
Procedure: Purified PARP domain of TNKS2 and either BSA or recombinant full-length 3BP2 protein were incubated in PARP reaction buffer (50 mM Tris pH 8.0, 4 mM MgCl2, 0.2 mM dithiothreitol) containing 0.5 mM NAD^+ as an exogenous source of ADP-ribose for 30 min at 25°C with or without PARP inhibitors. Reactions were stopped by adding sample buffer to the tubes. Samples were boiled and separated on a 4–20% SDS–PAGE gel. The gel was stained with Coomassie Blue, dried on a gel dryer and used for autoradiography analysis (Fig. 2 ▶).

PARP1 = tested on: PARP1; set-up: method as in not given; details: cited from earlier work
TNKS1 = tested on: TNKS1; set-up: method as in not given; details: IC50 values available from the literature; ref not given; cited from earlier work
PARP2 = tested on: PARP2; set-up: method as in not given; details: IC50 values available from the literature; ref not given; cited from earlier work
TNKS2 = tested on: TNKS2; set-up: method as in not given; details: IC50 values available from the literature; ref not given; cited from earlier work
[1] = IC50 values available from the literature, ref not given

T1 sequence (Q9H2K2 959-1164): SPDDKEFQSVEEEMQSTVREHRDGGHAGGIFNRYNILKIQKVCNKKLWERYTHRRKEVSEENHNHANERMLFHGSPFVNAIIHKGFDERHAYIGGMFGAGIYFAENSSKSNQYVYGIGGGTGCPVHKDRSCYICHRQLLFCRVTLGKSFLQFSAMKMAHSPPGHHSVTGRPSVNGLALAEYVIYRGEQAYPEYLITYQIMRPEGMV

Row | SMILES | pIC50 (PARP domain of TNKS2) | pIC50 (PARP1; [1]) | pIC50 (PARP1) | pIC50 (PARP2) | also measured
1 | NC(=O)c1cccc(N)c1 [3-AB, 3-Amino-benzamide] | < 4.52 | 4.48 |  |  | 
2 | Oc1cccc2c(O)nccc12 [1,5-IQD, 1,5-Isoquinolinediol] | 5.82 |  |  |  | 
3 | NC(=O)c1ccc(I)c([N+](=O)[O-])c1 [BSI-201, 4-Iodo-3-nitrobenzamide] | 6.38 |  |  |  | 
4 | O=C1NCCc2c(OCCCCN3CCCCC3)cccc21 [DPQ] | 5.55 |  | 7.64 |  | pIC50 (TNKS1): 7.48
5 | Cc1nc2c(c(=O)[nH]1)CSCC2 [DR-2313, 2-Methyl-3,5,7,8-tetrahydro-4H-thiopyrano[4,3-d]pyrimidin-4-one] | 5.52 |  |  | 6.62 | 
6 | Nc1cccc2c(=O)[nH]ccc12 [5-AIQ, 5-Aminoisoquinolinone] | 5.00 |  | 6.60 |  | 
7 | Cc1nc2c(O)cccc2c(=O)[nH]1 [NU-1025, 8-Hydroxy-2-methyl-3-hydro-quinazolin-4-one] |  | 6.40 |  |  | 
8 | Nc1ccc2oc(=O)ccc2c1I [INH2BP, 5-Iodo-6-amino-1,2-benzopyrone] |  | 5.29 |  | 5.32 | 
10 | NC(=O)c1cccc2ncc(-c3ccc(Cl)cc3)nc12 [3,4-CPQ-5C, 3-(4-Chlorophenyl)-quinoxaline-5-carboxamide] | 5.44 |  |  |  | 
